The results in this text go back to US4618612A (Medosan Industrie Biochimiche Riunite S.p.A., priority 1983, dated 1986).

Data set [1] concerns human platelet aggregation (PRP). Nature of the data set: Human platelet aggregation in vitro induced by ADP, adrenalin, collagen or arachidonate. The format is cell-based. On the procedure:
Blood samples (20 ml) were obtained by venal puncture of the antecubital fossa using plastic syringes containing trisodium citrate as anticoagulant (final concentration 0.19% w/v). Platelet rich plasma (PRP) was harvested after slow centrifugation at 170 g for 12 min. and 0.2 ml aliquots were dispensed into plastic cuvettes and stored at room temperature throughout the experiment.
Aliquots of 0.2 ml PRP from each sample were treated with ADP, adrenalin, collagen or arachidonate, until the threshold concentrations of these aggregating agents had been reached. The threshold concentration is defined as the minimum whcih will produce irreversible aggregation. Once established, the threshold concentration was used to challenge test samples of each of the 2 test compounds or vehicle (DMSO) which had been incubated for 1 min. at 37 C. in the holding cell of the agregometer, prior to addition of the aggregating agent.
This was reported as the final concentration in the PRP after addition of 2.5-10 ul of test substance.

The subject of data set [2] is rat platelet-rich plasma (ADP-induced platelet aggregation). Nature of the data set: Anti-platelet aggregation activity in vitro (Born's method), rat platelet-rich plasma, ADP-induced. The format is cell-based. Here is the method:
Preparations (A), (B), (C), (D), (E) and (F) were administered "in vivo" orally and/or parenterally in 0.5% carboxymethylcellulose suspensions in physiological saline at neutral pH. When tested "in vitro", they were finely dispersed in neutral pH physiological saline.
This was studied "in vitro" following Born's method (Born G. W. R., Nature, 194, 937 (1962)) and inducing platelet aggregation with ADP.
Platelet-rich plasma was obtained by centrifugation for 10 minutes at 2,000 rpm of 9 parts rat blood to 1 part 3.13% sodium citrate solution. In performing the aggregation test, 0.2 ml of platelet rich plasm was mixed with a 0.9% NaCl solution to which the test substance was added to a final volume of 0.6 ml; the resulting mixture was incubated at 27° C. for 3 minutes. After inducement with ADP, aggregation was measured continuously with an Elvi 840 Aggregometer (Elvi Logos-Milan) to follow its course. The anti-aggregant effects were determined from the difference in the light transmission of the sample with respect to an ADP control.
Table I reports the platelet aggregation inhibition using different doses of the test compounds at a constant ADP concentration.

The next data set concerns carragenin-induced edema. Nature of the data set: Carragenin-induced edema test (Winter). The format is in vivo, rat. Here is the method: This effect was measured with an experimental model reproducing acute inflammation in rats: the carragenin-induced edema test according to C.
The nature of data set [3]: in vivo. The conditions noted are these: mouse, mice.
Data set [4] in a line: in vivo. The conditions noted are these: rat, rats.
For a further data set, the system named is gastric mucosa. Description: Gastric tolerance (ulcerogenic activity). Conditions: 4 days; for Mean Severity: scale 0-5. Format: in vivo, male Wistar rats. On the procedure:
This was studied by conducting tests of ulcerogenic activity in male Wistar rats, weighing 180 g on the average, in groups of 10 animals each. Three doses of each substance were given, and one group of animals was treated with vehicle only in a volume of 10 ml/kg bodyweight. Each dose was given orally for four consecutive days; on the fifth day, the rats were killed and autopsied. The ulcerogenic effect was assessed according to the following scale:
(1) each hemorrhage point ≥1 mm was evaluated as 1 lesion
(2) hemorrhage points smaller than 1 mm were counted as follows:
(b) from 1 to 19:2 lesions
(c) from 1 to 29:3 lesions
(2) gastric mucosa irritation: 1
(3) hemorrahge points <1 mm: 2
(4) hemorrhage points between 1 and 3 mm: 3
(5) hemorrhage points >3 mm: 4
This scale was used to calculate the following gastric damage index: [formula]

The mark [5] stands for this setting: ADP 2 μmol/l, dose 1 V/ml (Table II).
Setting [6] is: ADP 5 μmol/l, dose 1 V/ml (Table II).
Setting [7] is: ADP 7.08 μmol/l, dose 1 /ml (Table I).
Where [8] appears, read: ADP 7.08 μmol/l, dose 5 /ml (Table I).

Take “1-Methyl-5-p-methylbenzoylpyrrol-2-acetate of 7-(3-oxypropyl)theophylline [(C)]”: the “Minimum Effective Concentration (Final in PRP)” value in data set [1] (ADP, volunteer 1 (person delta for (A), person for (C))) came to 100 µM; in data set [1] (ADP, volunteer 2 (donor gamma)) it was 100 µM; in data set [1] (ADP, volunteer 3 (person alpha for (A), person for (C))), 250 µM; in data set [1] (Adrenalin, volunteer 1) it was 100 µM; in data set [1] (Adrenalin, volunteer 2 (donor gamma)) it was 0.25 µM; in data set [1] (Adrenalin, volunteer 3), 100 µM. The “Minimum Effective Concentration (Final in PRP)” value amounted to 400 µM in data set [1] (Arachidonate, volunteer 1); 10 µM in data set [1] (Arachidonate, volunteer 2 (donor gamma)); 10 µM in data set [1] (Arachidonate, volunteer 3); 350 µM in data set [1] (Collagen, volunteer 1); 250 µM in data set [1] (Collagen, volunteer 2 (donor gamma)); 100 µM in data set [1] (Collagen, volunteer 3). The “% Inhibition” value turned out to be 36% in data set [2] (setting [5]); 27% in data set [2] (setting [6]); 22% in data set [2] (setting [7]); 75% in data set [2] (ADP 7.08 μmol/l, dose 2,5 /ml (Table I)); 90% in data set [2] (setting [8]). Moreover, the “% Edema Inhibition” value is listed as 38,0% with carragenin-induced edema (I.P., 10 mg/kg, 3 h); 36,2% in the data set on carragenin-induced edema (I.P., 10 mg/kg, 6 h); 0,0% with carragenin-induced edema (I.P., 10 mg/kg, 24 h); 53,1% with carragenin-induced edema (I.P., 50 mg/kg, 3 h); 50,0% in the data set with carragenin-induced edema (I.P., 50 mg/kg, 6 h); 2,0% with carragenin-induced edema (I.P., 50 mg/kg, 24 h). The “% Edema Inhibition” value in the data set with carragenin-induced edema (I.P., 100 mg/kg, 3 h) was 69,5%; in the data set with carragenin-induced edema (I.P., 100 mg/kg, 6 h), 62,0%; in the data set on carragenin-induced edema (I.P., 100 mg/kg, 24 h), 10,0%; in the data set with carragenin-induced edema (OS, 10 mg/kg, 3 h), 40,2%; in the data set with carragenin-induced edema (OS, 10 mg/kg, 6 h) it was 34,0%; in the data set with carragenin-induced edema (OS, 10 mg/kg, 24 h) it was 0,0%. Besides, the “% Edema Inhibition” value in the data set with carragenin-induced edema (OS, 50 mg/kg, 3 h) is 59,0%; in the data set on carragenin-induced edema (OS, 50 mg/kg, 6 h), 57,0%; with carragenin-induced edema (OS, 50 mg/kg, 24 h), 22,2%; in the data set on carragenin-induced edema (OS, 100 mg/kg, 3 h) it was 70,0%; in the data set with carragenin-induced edema (OS, 100 mg/kg, 6 h), 66,1%; in the data set on carragenin-induced edema (OS, 100 mg/kg, 24 h) it was 31,0%.

As to `Cn1c(=O)c2c(ncn2CCCOC(=O)Cc2ccc(-n3cccc3)cc2)n(C)c1=O` [(D)], the LD50 was found to be 780 mg/kg in the data set “in vivo [3]” (ip, I.P.); 1100 mg/kg in “in vivo [3]” (po, OS); 675 mg/kg in “in vivo [4]” (ip, I.P.); 1000 mg/kg in “in vivo [4]” (po, OS). Further, the “% Inhibition” value in data set [2] (setting [5]) is 31%; in data set [2] (setting [6]) it was 24%. The “% Edema Inhibition” value with carragenin-induced edema (I.P., 10 mg/kg, 3 h) is 31,8%; in the data set on carragenin-induced edema (I.P., 10 mg/kg, 6 h), 32,7%; in the data set on carragenin-induced edema (I.P., 10 mg/kg, 24 h), 1,0%; with carragenin-induced edema (I.P., 50 mg/kg, 3 h) it was 50,1%; in the data set with carragenin-induced edema (I.P., 50 mg/kg, 6 h), 45,9%; in the data set on carragenin-induced edema (I.P., 50 mg/kg, 24 h), 8,6%. Moreover, the “% Edema Inhibition” value in the data set on carragenin-induced edema (I.P., 100 mg/kg, 3 h) was 67,0%; in the data set with carragenin-induced edema (I.P., 100 mg/kg, 6 h), 65,4%; with carragenin-induced edema (I.P., 100 mg/kg, 24 h) it was 9,6%; in the data set with carragenin-induced edema (OS, 10 mg/kg, 3 h), 39,0%; with carragenin-induced edema (OS, 10 mg/kg, 6 h) it was 32,0%; with carragenin-induced edema (OS, 10 mg/kg, 24 h) it was 0,0%. For the same compound, the “% Edema Inhibition” value in the data set on carragenin-induced edema (OS, 50 mg/kg, 3 h) is given as 53,1%; in the data set on carragenin-induced edema (OS, 50 mg/kg, 6 h) it was 52,0%; in the data set on carragenin-induced edema (OS, 50 mg/kg, 24 h), 11,6%; in the data set with carragenin-induced edema (OS, 100 mg/kg, 3 h) it was 66,8%; with carragenin-induced edema (OS, 100 mg/kg, 6 h) it was 64,1%; with carragenin-induced edema (OS, 100 mg/kg, 24 h) it was 16,7%.

For `Cc1ccc(C(=O)c2ccc(CC(=O)NCC(=O)OCCn3cnc4c3c(=O)n(C)c(=O)n4C)n2C)cc1` [(E)], the LD50 in “in vivo [3]” (ip, I.P.) stood at 1100 mg/kg; in the data set “in vivo [3]” (po, OS), 1400 mg/kg; in “in vivo [4]” (ip, I.P.), 987 mg/kg; in “in vivo [4]” (po, OS), 1340 mg/kg. Further, the “% Inhibition” value came to 35% in data set [2] (setting [5]) and 29% in data set [2] (setting [6]). Further, the “% Edema Inhibition” value with carragenin-induced edema (I.P., 10 mg/kg, 3 h) is recorded as 31,8%; in the data set with carragenin-induced edema (I.P., 10 mg/kg, 6 h), 29,0%; in the data set on carragenin-induced edema (I.P., 10 mg/kg, 24 h), 0,0%; in the data set on carragenin-induced edema (I.P., 50 mg/kg, 3 h), 56,9%; in the data set on carragenin-induced edema (I.P., 50 mg/kg, 6 h), 54,8%; in the data set with carragenin-induced edema (I.P., 50 mg/kg, 24 h), 12,0%. Also, the “% Edema Inhibition” value in the data set with carragenin-induced edema (I.P., 100 mg/kg, 3 h) is 80,0%; in the data set with carragenin-induced edema (I.P., 100 mg/kg, 6 h), 76,9%; with carragenin-induced edema (I.P., 100 mg/kg, 24 h) it was 23,0%; with carragenin-induced edema (OS, 10 mg/kg, 3 h), 34,0%; with carragenin-induced edema (OS, 10 mg/kg, 6 h), 33,8%; with carragenin-induced edema (OS, 10 mg/kg, 24 h) it was 0,0%. For the same compound, the “% Edema Inhibition” value was 54,4% in the data set with carragenin-induced edema (OS, 50 mg/kg, 3 h); 49,8% in the data set on carragenin-induced edema (OS, 50 mg/kg, 6 h); 10,0% with carragenin-induced edema (OS, 50 mg/kg, 24 h); 78,8% in the data set with carragenin-induced edema (OS, 100 mg/kg, 3 h); 79,0% in the data set on carragenin-induced edema (OS, 100 mg/kg, 6 h); 32,6% with carragenin-induced edema (OS, 100 mg/kg, 24 h).

As to `Cc1ccc(C(=O)c2ccc(CC(=O)O)n2C)cc1` [Na Tolmetin 2H2 O, 1-methyl-5-p-methylbenzoylpyrrol-2-acetic acid, reference compound], the “% incidence 10” value with gastric mucosa (50 mg/kg oral) is on record as 7 %/10; in the data set on gastric mucosa (100 mg/kg oral), 10 %/10; in the data set with gastric mucosa (200 mg/kg oral), 10 %/10. Besides, the “Mean No. lesions” value is reported as 2 with gastric mucosa (50 mg/kg oral), 2,5 with gastric mucosa (100 mg/kg oral) and 3 in the data set with gastric mucosa (200 mg/kg oral). Besides, the “Mean Severity” value in the data set with gastric mucosa (50 mg/kg oral) is recorded as 2; in the data set with gastric mucosa (100 mg/kg oral), 3,5; with gastric mucosa (200 mg/kg oral) it was 4. In addition, the “% Edema Inhibition” value is on record as 32,0% in the data set with carragenin-induced edema (I.P., 10 mg/kg, 3 h); 23,0% in the data set with carragenin-induced edema (I.P., 10 mg/kg, 6 h); 0,0% in the data set on carragenin-induced edema (I.P., 10 mg/kg, 24 h); 48,6% in the data set on carragenin-induced edema (I.P., 50 mg/kg, 3 h); 53,2% with carragenin-induced edema (I.P., 50 mg/kg, 6 h); 0,0% with carragenin-induced edema (I.P., 50 mg/kg, 24 h). Further, the “% Edema Inhibition” value with carragenin-induced edema (I.P., 100 mg/kg, 3 h) was 67,3%; in the data set with carragenin-induced edema (I.P., 100 mg/kg, 6 h), 55,1%; with carragenin-induced edema (I.P., 100 mg/kg, 24 h), 0,0%; with carragenin-induced edema (OS, 10 mg/kg, 3 h), 30,5%; with carragenin-induced edema (OS, 10 mg/kg, 6 h), 24,0%; in the data set on carragenin-induced edema (OS, 10 mg/kg, 24 h) it was 0,0%. The “% Edema Inhibition” value in the data set with carragenin-induced edema (OS, 50 mg/kg, 3 h) is on record as 49,0%; in the data set with carragenin-induced edema (OS, 50 mg/kg, 6 h), 52,0%; in the data set with carragenin-induced edema (OS, 50 mg/kg, 24 h), 0,0%; with carragenin-induced edema (OS, 100 mg/kg, 3 h) it was 59,0%; in the data set with carragenin-induced edema (OS, 100 mg/kg, 6 h) it was 54,2%; in the data set with carragenin-induced edema (OS, 100 mg/kg, 24 h), 0,0%.

As for `CC(=O)Oc1ccccc1C(=O)O` [aspirin, reference compound], the “% Inhibition” value is reported as 29% in data set [2] (setting [5]); 19% in data set [2] (setting [6]); 15% in data set [2] (setting [7]); 60% in data set [2] (setting [8]); 100% in data set [2] (ADP 7.08 μmol/l, dose 10 /ml (Table I)).

One may read the % Inhibition as the drop in the measured response relative to a control, in per cent. A word on the LD50: it is the dose expected to kill half of the subjects tested. A higher LD50 goes with a less toxic substance.
